Measurements published in patent US20220273662A1, “USE OF SILDENAFIL AND ROCK INHIBITORS FOR TREATING STROKE OR SEQUELAE FOLLOWING STROKE” (SOONCHUNHYANG UNIVERSITY INDUSTRY ACADEMY COOPERATION …, priority 2019, published 2022).
Structures can show the parent of a compound that is named as a salt.

Tests used:
Assay type in all cases: in vivo, Sprague-Dawley male rats
[1] = system: MCAo30 acute stroke (cerebral infarction) model; assay: Barnes maze test (cognitive function, escape time); conditions: compared to normal control, MCAo30 about 3-fold longer than normal control
Description: All experimental animals were arbitrarily provided with commercially available feed and water under specific temperature, humidity and lighting conditions (light-dark cycle 12:12, 22±2° C., 55±5%). […] Co., Republic of Korea) ii) GSK429286A (10 mg/kg/DMSO, Sigma, USA) iii) sildenafil citrate (20 mg/kg/saline) and GSK429286A (10 mg/kg/DMSO) A Barnes maze consisted of a circular platform (122 cm in diameter) with 20 holes around the same distance and elevated 105 cm from the floor. Four different visual cues were placed on each quadrant wall surrounding the platform at a height that makes it easy to observe experimental animals, and one hole (escape hole) in the quadrant area includes an escape chamber under the platform. Further, bedding was added to the escape chamber for the safety of experimental animals. […] More specifically, a metronome was used to generate 80 Hz noise and to maintain the illuminance measured at the center of the platform at 300 lux. […] 10 seconds later, when the cylinder was removed, the experimental animal explored the platform from the center and this activity was recorded by a video camera. […] The distance and duration traveled from the quadrant area where the escape chamber connected to the escape hole is located was analyzed by Ethovision® software, and the waiting time to reach the escape chamber connected to the escape hole was manually analyzed.

[2] = system: MCAo30 acute stroke (cerebral infarction) model; assay: Measurement of infarction volume (TTC staining) after middle cerebral artery occlusion; conditions: relative to MCAo30 (100% stroke range basis); i.p. sildenafil citrate 20 mg/kg and/or GSK429286A 10 mg/kg, 30 min before or after reperfusion; combination value for both before/after groups
Description: 8-week-old Sprague-Dawley male rats weighing 260 to 280 g were used as experimental animals, and the experimental animals were obtained from the Experimental Animal Center, at Soonchunhyang University (Cheonan). All experimental animals were arbitrarily provided with commercially available feed and water under specific temperature, humidity and lighting conditions (light-dark cycle 12:12, 22±2° C., 55±5%). All animal protocols were approved by the Administrative Panel on Laboratory Animal Care of Soonchunhyang University (permit No. SCH16-0024). In performing experiments related to the present invention, all possible efforts were made to prevent the suffering of the experimental animals and to minimize the number of experimental animals used during the experiments. […] Finally, images were produced from TTC-stained coronal section brain slices using a model DP72 digital camera and DP2-BSW microscope digital camera software (Olympus, Japan), the area of ischemic brain damage in each brain slice was measured using image analysis software (ImageJ, NIH, USA). […] The volume of total cerebral infarction was the sum of the core and the ischemic penumbra, the damaged volume was calculated as an average percentage of the hemispherical volume, and the volume of edema was adjusted with reference to the results of previous studies. […]

[3] = system: MCAo30 acute stroke (cerebral infarction) model; assay: Open field test (locomotor activity); conditions: normal control = 100% (MCAo30 57.4%), combination given after reperfusion
Description: 8-week-old Sprague-Dawley male rats weighing 260 to 280 g were used as experimental animals, and the experimental animals were obtained from the Experimental Animal Center, at Soonchunhyang University (Cheonan). All experimental animals were arbitrarily provided with commercially available feed and water under specific temperature, humidity and lighting conditions (light-dark cycle 12:12, 22±2° C., 55±5%). […] In performing experiments related to the present invention, all possible efforts were made to prevent the suffering of the experimental animals and to minimize the number of experimental animals used during the experiments. […] More specifically, the following experimental drugs were each intraperitoneally administered 30 minutes before reperfusion after middle cerebral artery occlusion and 30 minutes after reperfusion after middle cerebral artery occlusion. i) sildenafil citrate (20 mg/kg/saline, Hanmi Parm. […] An open field black box (60×60×40 cm; length, width, height) was placed in an isolated room without clues, and the experimental animals were placed in the central area of the open field box under diffused light. The distance traveled by the experimental animals was recorded and analyzed for 30 minutes using Ethovision® software, which is a PC-based video motion analysis system. […]

[4] = system: MCAo30 acute stroke (cerebral infarction) model; assay: Light-dark box test (anxiety level); conditions: normal control = 100% (MCAo30 62.08%), combination given after reperfusion
Description: 8-week-old Sprague-Dawley male rats weighing 260 to 280 g were used as experimental animals, and the experimental animals were obtained from the Experimental Animal Center, at Soonchunhyang University (Cheonan). All experimental animals were arbitrarily provided with commercially available feed and water under specific temperature, humidity and lighting conditions (light-dark cycle 12:12, 22±2° C., 55±5%). All animal protocols were approved by the Administrative Panel on Laboratory Animal Care of Soonchunhyang University (permit No. SCH16-0024). […] More specifically, the following experimental drugs were each intraperitoneally administered 30 minutes before reperfusion after middle cerebral artery occlusion and 30 minutes after reperfusion after middle cerebral artery occlusion. i) sildenafil citrate (20 mg/kg/saline, Hanmi Parm. Co., Republic of Korea) ii) GSK429286A (10 mg/kg/DMSO, Sigma, USA) iii) sildenafil citrate (20 mg/kg/saline) and GSK429286A (10 mg/kg/DMSO) A light-dark box (45×27×27 cm; length, width, height) was divided into two compartments, and more specifically, three-fifths was a bright compartment and two-fifths was a dark compartment. Each compartment was connected by a 9×9 cm entrance located on the floor. […] Here, sildenafil and the ROCK inhibitor were co-administered after reperfusion after middle cerebral artery occlusion.

[5] = system: MCAo30 acute stroke (cerebral infarction) model; assay: Measurement of fEPSP slope (synaptic plasticity, hippocampal CA1 LTP); conditions: for fEPSP slope: MCAo30 84.11%
Description: 8-week-old Sprague-Dawley male rats weighing 260 to 280 g were used as experimental animals, and the experimental animals were obtained from the Experimental Animal Center, at Soonchunhyang University (Cheonan). All experimental animals were arbitrarily provided with commercially available feed and water under specific temperature, humidity and lighting conditions (light-dark cycle 12:12, 22±2° C., 55±5%). […] More specifically, the following experimental drugs were each intraperitoneally administered 30 minutes before reperfusion after middle cerebral artery occlusion and 30 minutes after reperfusion after middle cerebral artery occlusion. i) sildenafil citrate (20 mg/kg/saline, Hanmi Parm. Co., Republic of Korea) ii) GSK429286A (10 mg/kg/DMSO, Sigma, USA) iii) sildenafil citrate (20 mg/kg/saline) and GSK429286A (10 mg/kg/DMSO) Field potentials (fEPSP) were recorded at a slightly modified part from CA1 of the hippocampus. After a behavioral test, the animals were anesthetized intraperitoneally using urethane (1.5 g/kg) and placed in a stereotaxic frame. The rectal temperature during surgery was maintained at 37±0.3° C. using a temperature controller (Harvard Instruments, USA). Next, the scalp was opened and separated, and a hole was made through the skull to introduce electrodes. The coordinates (in mm) based on bregma (a junction of the coronal suture and the sagittal suture in the skull) are as follows. […] The depth of the electrodes was finally determined by observing whether the induced response was optimized. The fEPSP was adjusted to about 60% of the maximum response size for testing, and stimuli were generated by a BNC-2110 apparatus (National Instruments, USA) and a Digital Stimulus Isolation unit (Getting Instruments, CA, USA). The response of pyramidal neurons to the Schaffer collateral stimulus was recorded using a [MUT].C. pre-amplifier (3-1000 Hz bandpass, Astro-Med Inc.) and analyzed using […] . […] A stable baseline was recorded for 30 minutes to 60 minutes. […] The response of fEPSP for the age-matched control was also measured using the same method.

SMILES | escape time (in words) [1] | damage to brain tissue after the onset of stroke (infarction volume) [2] | locomotor activity [3] | time in which rats stayed in a bright place compared to the normal control [4] | fEPSP slope ([5]; administered after reperfusion after middle cerebral artery occlusion) | fEPSP slope ([5]; administered before reperfusion after middle cerebral artery occlusion) | fold improved fEPSP slope, group after reperfusion compared to group before reperfusion ([5]; sildenafil alone, after vs before reperfusion)
CC1=C(C(=O)Nc2cc3cn[nH]c3cc2F)C(c2ccc(C(F)(F)F)cc2)CC(=O)N1 (stereo not shown) [ROCK inhibitor, N-(6-fluoro-1H-indazol-5-yl)-6-methyl-2-oxo-4-[4-(trifluoromethyl)phenyl]-3,4-dihydro-1H-pyridine-5-carboxamide] | level similar to that of the normal control | 21.28% | 71% | 84.26% | – | – | –
CCCc1nn(C)c2c(=O)[nH]c(-c3cc(S(=O)(=O)N4CCN(C)CC4)ccc3OCC)nc12 [sildenafil, sildenafil citrate] | – | 26.71% | 70.8% | 63.63% | 158.31% | 102.35% | about 4.06 fold
